In patent US4009273A, “Substituted 10,11-dihydro-5,10-imino-[5H] dibenzo (a,d)-cycloheptene” (priority 1972, dated 1977):
“And” between values parts separate entries of the source, which are not always exact repeats. Equal values may be shown once.

Key:
amphetamine deaths = experiment: Amphetamine toxicity in mice; type: in vivo, mice (female); conditions: mortality at 4 h
Description: The test was effected on group of 10 female mice weighing between 18 and 22 g kept at 27° C for the duration of the test. The test products were intraperitoneally administered in different doses in a volume of 0.01 ml /g of mouse. One hour later, the mice received an injection of 15 mg/kg of a solution of 1.5 mg of amphetamine per ml of physiological serum. The mortality 4 hours after the amphetamine injection was determined and the results were expressed as a ratio of number of dead animals to number of starting animals.

[1] = tested on: pentamethylenetetrazol convulsions; experiment: Anticonvulsant effect (pentamethylenetetrazol perfusion); type: in vivo, mice (female); conditions: 1 h before perfusion
Description: The anticonvulsant activity of the compounds was determined on groups of 10 female mice with intraperitoneal administration of the test compounds in acid solution at different doses and the control group received only the solvent. One hour after the injection, the mice were perfused with a solution of pentamethylenetetrazol in physiological serum at a concentration of 3 mg/ml. The perfusion was intraveinous at a rate of 1 ml per minute and in the course of the perfusion, the progress of introxication was characterized by the following 3 criteria:
a. Threshold of convulsant effect (myoclonia of the ears)
b. Crisis of clonic convulsions
c. Tonic convulsion with apnea and generally followed by death.

DOPA = experiment: Potentialization of DOPA; type: in vivo, mice (male); conditions: 1 h before 50 mg/kg DOPA
Description: In this test, DOPA [racemic β-(3,4-dihydroxyphenyl)-alanine] was administered to mice pretreated with 1-isonicotinoyl-2-isopropyl-hydrazine18 hours before the test which product caused the following symptoms: hypertonicity, agitation, crying, aggressiveness, salivation and exophthalmia. The administration of an antidepressant one hour before the DOPA injection potentializes the intensity of the effects.
Male mice weighing between 18 to 22 g received intraperitoneally 50 mg/kg of 1-isonicotinoyl-2-isopropyl-hydrazine and 18 hours later the test product intraperitoneally in aqueous solution in increasing doses and 1 hour later received an intraperitoneal injection of 50 mg/kg of DOPA. The different effects were evaluated 15 and 30 minutes after the DOPA injection and each symptom was evaluated for each animal on a scale from 0 to 3 and the evaluations for each dose was totaled. The totals are reported in Table III as a percent of the total of control animals.

Acute toxicity = conditions: mouse, in vivo, ip, Swiss mice, observed for a week
Description: The acute toxicity was determined on groups of Swiss mice weighing 18 to 22 g and the test products were administered intraperitoneally in increasing doses and the animals were kept under observation for a week.

amytal sleeping time = experiment: Potentialization of sleeping time (amytal); type: in vivo, mice (female); conditions: 1 h before 80 mg/kg amytal i.v.
Description: The potentialization of sleeping time was determined with a test using amytal [5-ethyl-5-isoamyl-barbituric acid] in which groups of female mice weighing between 18 and 22 g were kept at 25° C for the duration of the test. The test products were administered intraperitoneally at different doses one hour before intraveinous injection of 80 mg/kg of amytal and the sleeping time was noted which is the time while the reflux of straightening in the mice was negative.

[2] = 5 mg/Kg i.p., 1 h before 15 mg/kg amphetamine
[3] = 10 mg/Kg i.p., 1 h before 15 mg/kg amphetamine
[4] = 20 mg/Kg i.p., 1 h before 15 mg/kg amphetamine
[5] = head prints only "mg/Kg" (dose figure missing), i.p.

Row | Structure (SMILES) | ratio of number of dead animals to number of starting animals (amphetamine deaths; [2]) | ratio of number of dead animals to number of starting animals (amphetamine deaths; [3]) | ratio of number of dead animals to number of starting animals (amphetamine deaths; [4]) | Dose of pentamethylenetetrazol, Clonic Crisis ([1]; 1 mg/Kg i.p.) | Dose of pentamethylenetetrazol, Myoclonia ([1]; 1 mg/Kg i.p.) | Dose of pentamethylenetetrazol, Tonic Crisis ([1]; 1 mg/Kg i.p.) | Dose of pentamethylenetetrazol, Clonic Crisis ([1]; 2 mg/Kg i.p.) | Dose of pentamethylenetetrazol, Myoclonia ([1]; 2 mg/Kg i.p.) | Dose of pentamethylenetetrazol, Tonic Crisis ([1]; 2 mg/Kg i.p.) | Dose of pentamethylenetetrazol, Clonic Crisis ([1]; 5 mg/Kg i.p.) | Dose of pentamethylenetetrazol, Myoclonia ([1]; 5 mg/Kg i.p.) | Dose of pentamethylenetetrazol, Tonic Crisis ([1]; 5 mg/Kg i.p.) | total symptom score as percent of the total of control animals (DOPA; 1 mg/Kg i.p.) | total symptom score as percent of the total of control animals (DOPA; 2 mg/Kg i.p.) | total symptom score as percent of the total of control animals (DOPA; 10 mg/Kg i.p.) | LD50 at 168 h (Acute toxicity) | ratio of number of dead animals to number of starting animals (amphetamine deaths; [5]) | average sleeping time (amytal sleeping time; 5 mg/Kg i.p.) | average sleeping time (amytal sleeping time; 10 mg/Kg i.p.) | average sleeping time (amytal sleeping time; 20 mg/Kg i.p.) | further results
1 | OCCN1C2Cc3ccccc3C1c1ccccc12 (stereo not drawn) [Example 6, 12-(2'-hydroxyethyl)-10,11-dihydro-5,10-imino-[5H]-dibenzo (a,d) cycloheptene dl] | 3/10 | 9/10 and 3/10 | 0/10 | 45.7 mg/kg | 40.6 mg/kg | 144.2 mg/kg | 43.5 mg/kg | 38.6 mg/kg | 104.3 mg/kg | 45.5 mg/kg | 49.3 mg/kg | 204.6 mg/kg | 138% | 155% | 140% | 350 mg/kg | – | – | – | – | Dose of pentamethylenetetrazol, Clonic Crisis ([1]; 0.5 mg/Kg i.p.): 42.9 mg/kg; Dose of pentamethylenetetrazol, Myoclonia ([1]; 0.5 mg/Kg i.p.): 38.2 mg/kg; Dose of pentamethylenetetrazol, Tonic Crisis ([1]; 0.5 mg/Kg i.p.): 129.0 mg/kg
2 | CC(=O)CN1C2Cc3ccccc3C1c1ccccc12 (stereo not drawn) [Example 7, 12-acetonyl-10,11-dihydro-5,10-imino-[5H]-dibenzo (a,d) cycloheptene dl] | 2/10 | 0/10 | 0/10 | 52.7 mg/kg | 47.7 mg/kg | 172.5 mg/kg | 62.6 mg/kg | 57.7 mg/kg | 172.5 mg/kg | 112.5 mg/kg | 107.4 mg/kg | 238.9 mg/kg | 114% | 135% | 173% | 350 mg/kg | 0/10 | 31.3 min | 51.2 min | 82.3 min | Dose of pentamethylenetetrazol, Clonic Crisis ([1]; 0.5 mg/Kg i.p.): 53.3 mg/kg; Dose of pentamethylenetetrazol, Myoclonia ([1]; 0.5 mg/Kg i.p.): 48.6 mg/kg; Dose of pentamethylenetetrazol, Tonic Crisis ([1]; 0.5 mg/Kg i.p.): 119.2 mg/kg; total symptom score as percent of the total of control animals (DOPA; 5 mg/Kg i.p.): 138%; average sleeping time (amytal sleeping time; 50 mg/Kg i.p.): 107.5 min
3 | CN(C)CC(=O)N1C2Cc3ccccc3C1c1ccccc12 (stereo not drawn) [Example 14, 12-dimethylaminoacetyl-10,11-dihydro-5,10-imino-[5H]-dibenzo (a,d) cycloheptene dl] | – | – | – | – | – | – | – | – | – | – | – | – | – | – | 117% | 150 mg/kg | – | – | – | – | total symptom score as percent of the total of control animals (DOPA; 20 mg/Kg i.p.): 160%; total symptom score as percent of the total of control animals (DOPA; 50 mg/Kg i.p.): 196%
4 | CCN1C2Cc3ccccc3C1c1ccccc12 (stereo not drawn) [Example 21, 12-ethyl-10,11-dihydro-5,10-imino-[5H]-dibenzo (a,d) cycloheptene dl] | 10/10 | 6/10 | 0/10 | 48.3 mg/kg | 42.9 mg/kg | 168.2 mg/kg | 47.7 mg/kg | 42.3 mg/kg | 206.2 mg/kg | 57.0 mg/kg | 49.6 mg/kg | 238.1 mg/kg | 187% | 175% | – | – | 0/10 | 58.1 min | 71.5 min | – | total symptom score as percent of the total of control animals (DOPA; 5 mg/Kg i.p.): 181%; average sleeping time (amytal sleeping time; 1 mg/Kg i.p.): 32.1 min; average sleeping time (amytal sleeping time; 2 mg/Kg i.p.): 39.6 min
5 | CN1C2Cc3ccccc3C1c1ccc(Cl)cc12 (stereo not drawn) [Example 26, 8-chloro-12-methyl-10,11-dihydro-5,10-imino-[5H]-dibenzo (a,d) cycloheptene dl] | 10/10 | 10/10 | 10/10 | – | – | – | – | – | – | 50.8 mg/kg | 43.9 mg/kg | 128 mg/kg | – | – | – | ~350 mg/kg | 1/9 | 22.6 min | 27.4 min | 36.0 min | Dose of pentamethylenetetrazol, Clonic Crisis ([1]; 10 mg/Kg i.p.): 52.0 mg/kg; Dose of pentamethylenetetrazol, Myoclonia ([1]; 10 mg/Kg i.p.): 44.1 mg/kg; Dose of pentamethylenetetrazol, Tonic Crisis ([1]; 10 mg/Kg i.p.): 174.7 mg/kg; Dose of pentamethylenetetrazol, Clonic Crisis ([1]; 20 mg/Kg i.p.): 56.4 mg/kg; Dose of pentamethylenetetrazol, Myoclonia ([1]; 20 mg/Kg i.p.): 49.7 mg/kg; Dose of pentamethylenetetrazol, Tonic Crisis ([1]; 20 mg/Kg i.p.): 230.2 mg/kg; Dose of pentamethylenetetrazol, Clonic Crisis ([1]; 50 mg/Kg i.p.): 66.7 mg/kg; Dose of pentamethylenetetrazol, Myoclonia ([1]; 50 mg/Kg i.p.): 52.6 mg/kg; Dose of pentamethylenetetrazol, Tonic Crisis ([1]; 50 mg/Kg i.p.): 274.2 mg/kg; average sleeping time (amytal sleeping time; 50 mg/Kg i.p.): 94.5 min
6 | ClCCN1C2Cc3ccccc3C1c1ccccc12 (stereo not drawn) [Example 27, 12-(2'-chloroethyl)-10,11-dihydro-5,10-imino-[5H]-dibenzo (a,d) cycloheptene dl] | 10/10 | 8/10 | 2/10 | – | – | – | 52.9 mg/kg | 45.9 mg/kg | 163.2 mg/kg | 56.7 mg/kg | 51.5 mg/kg | 229.8 mg/kg | – | – | – | ~150 mg/kg | – | 42.2 min | 44.8 min | 83.0 min | Dose of pentamethylenetetrazol, Clonic Crisis ([1]; 10 mg/Kg i.p.): 62.1 mg/kg; Dose of pentamethylenetetrazol, Myoclonia ([1]; 10 mg/Kg i.p.): 57 mg/kg; Dose of pentamethylenetetrazol, Tonic Crisis ([1]; 10 mg/Kg i.p.): 258.2 mg/kg; average sleeping time (amytal sleeping time; 2 mg/Kg i.p.): 21.7 min
